# Results from patent US6337182B1, “Method for the quantitative determination of DNA sequences” (Dade Behring Marburg GmbH, priority 1990, dated 2002).
# Where “and” joins values, the source holds several entries; their conditions need not be identical. Equal entries are not always repeated.
# Tested on: TaqI-endonuclease site TCGA (2508-2511) of exon 3 of the c-Ha-ras gene
# Assay: Detection of ethylnitrosourea induced mutations in the TaqI site of c-Ha-ras exon 3 in cultured human fibroblasts (selective PCR, plaque hybridization)
# Assay type: cell-based
# Procedure: Monolayer cultures of human foreskin fibroblasts 3229 (other cell lines of the same origin work equally well) are treated with the carcinogen ethylnitrosourea (ENU, 2mM) in DMSO or sham-treated with DMSO only and harvested 3 days later. Total DNA is extracted and digested exhaustively with BamHI yielding a 6.6 Kb fragment containing the c-Ha-ras gene. The digestion mixture is separated on a 1% agarose gel and the DNA in the region from 6.0-7.0 Kb eluted in a “Biotrap” apparatus as described in Example I. The completeness of the BamHI digestion and the recovery of the c-Ha-ras sequences from the gel are monitored by Southern-blotting with a 6.6 Kb c-Ha-ras probe. “Biotrap” purified DNA (6.0-7.0 Kb, corresponding to 25 μg BamHI digested genomic DNA) is then exhaustively digested with TaqI endonuclease and a fragment containing the TaqI site 2508-2511 (TCGA) of the c-Ha-ras gene amplified as described below and illustrated in FIG. 2. At the outset of the amplification 10 copies of an authentic “standard” sequence are added which contain the sequence ACGT at residues 2508-2511 (and a G-instead of the C residue at position 2503), but are otherwise identical to wt c-Ha-ras.
# The digested DNA was amplified, utilizing a “nested primer approach” to selectively amplify only DNA containing a mutated TaqI restriction site.
# 1. Amplification Cycles 1-15. The cycles 1-15 were conducted with the outer primers (see FIG. 2) yielding a 237 bp fragment. Each cycle consists of a melting temperature of 81° C. (1.1 min), an annealing temperature of 55° C. (0.8 min), and an extension temperature of 65° C. (0.3 min). The initial contents of each amplification tube are as follows: 2.5 μl of “digested DNA” (i.e. TaqI digested 6.0-7.0 Kb BamHI fragment population described above); 0.75 μg of each outer primer (primers 1 and 2, see FIG. 2); 25 mM each of dATP, dCTP, dGTP and dTTP; 21% DMSO; 66.6 mM Tris-HCl, pH 8.8, 16.6 mM ammonium sulfate; 6.7 mM magnesium chloride; 10 mM 2-merc:aptoethanol, 6.7 μM EDTA, and 1.5 units Taq polymerase, in a total volume of 25 μl. To prevent evaporation during temperature cycling, an overlay of 3-4 drops of paraffin oil is added to each tube. (Note: Taq polymerase is added to the tubes after an initial melting period of 3 minutes at 92° C. Subsequently, one μl additions of a TaqI endonuclease-containing TaqI Mix are made to the appropriate amplification tubes during the annealing periods of cycles 1, 3, 5, 7 , 9, 11, 13 and 15). The TaqI mix contains 25 mM each of DATP, dCTP, dGTP and dTTP; 21% DMSO; 66.6 mM Tris-HC1, pH 8.8; 16.6 mM ammonium sulfate; 6.7 mM magnesium chloride; 10 mM 2-mercaptoethanol; 6.7 μm EDTA; 0.12 units/μl Taq polymerase and 1.2 units/μl TaqI endonuclease.
# Amplification cycles 16-25 are conducted at a higher melting temprature (91° C.) and a lower DMSO concentration (12%) with the outer primers (primers 1 and 2, see FIG. 2). Each cycle consists of a melting temperature of 91° C. (0.8 min) and an annealing temperature of 57° C. (0.4 min). After the 15th cycle, the DMSO concentration is reduced to 12% by transferring 16 μl of each amplification solution to new tubes which contain 11 μl of a DMSO-free mixture consisting of 229 ng of each outer primer/11 μl; 25 mM each of dATP, dCTP, dGTP and dTTP; 66.6 mM Tris-HCl, pH 8.8; 16.6 mM ammonium sulfate; 6.7 mM magnesium chloride, 10 mM 2.-mercaptoethanol and 6.7 μM EDTA. Paraffin oil (3 drops) is added to each tube and the 16th cycle begun with an initial melting period of 3 min at 92° C., after which 1.5 units of Taq polymerase is added to each tube.
# Amplification cycles 26-41 are conducted with the inner primers (primers 3 and 4, see FIG. 2), which contain “EcoRI tails” to facilitate later ligation into phage arms. With the chosen inner primers a 184 bp fragment is synthesized. In order to reduce competition between outer and inner primers, the outer primer concentration is reduced by a factor of 121 relative to the inner primer concentration. […]
# [1] = mean of 4 Petri dishes, 2 mM ethylnitrosourea, human fibroblasts (3229)
compound,measurement,setting,value
CCN(N=O)C(N)=O [ethylnitrosourea],copies of mutated sequence TCTA in the original DNA sample,"25 μg DNA, 10 copies of standard gave 17% plaques, mutation 7%",6 copies
same,plaques containing wt sequence DNA or any of the remaining 11 possible base-pair mutations,"2 mM ethylnitrosourea, human fibroblasts (3229)",No plaques were detected
same,frequency of induced base-pair mutation TCGA→TCTA at sequence 2508-2511 of the human c-Ha-ras gene,"2 mM, human fibroblasts 3229, estimated against 10 copies of standard sequence",~7.5 mutations in 10^7 c-Ha-ras genes
same,mutation frequency,"TCGA→TCTA, 2 mM, human fibroblasts 3229, 25 μg DNA",~7.5×10^−7 per c-Ha-ras gene
same,"plaques containing mutated sequence TCTA, mean",[1],13.2
same,"plaques containing mutated sequence TCTA, mean share",[1],(7%)
same,plaques containing mutated sequence TCTA,"number of plaques per Petri dish, DNA from 3 × 10^6 human fibroblasts (3229) treated with 2 mM ethylnitrosourea, harvested 3 days later",16 and 13 and 12
